Source: ChEMBL document CHEMBL1201862, “PubChem BioAssay data set” (2004)
Calls of active or inactive are those of the source.

What was measured:
[1] = target: T1, Short transient receptor potential channel 4 (Mus musculus, UniProt Q9QUQ5); assay: calcium entry via TRPC4 opening agents – cell-based, HEK293 TRPC4/mu-opioid, Fluo-4 calcium, dose response (AID 434937); assay type: functional
T1 sequence (Q9QUQ5 whole entry): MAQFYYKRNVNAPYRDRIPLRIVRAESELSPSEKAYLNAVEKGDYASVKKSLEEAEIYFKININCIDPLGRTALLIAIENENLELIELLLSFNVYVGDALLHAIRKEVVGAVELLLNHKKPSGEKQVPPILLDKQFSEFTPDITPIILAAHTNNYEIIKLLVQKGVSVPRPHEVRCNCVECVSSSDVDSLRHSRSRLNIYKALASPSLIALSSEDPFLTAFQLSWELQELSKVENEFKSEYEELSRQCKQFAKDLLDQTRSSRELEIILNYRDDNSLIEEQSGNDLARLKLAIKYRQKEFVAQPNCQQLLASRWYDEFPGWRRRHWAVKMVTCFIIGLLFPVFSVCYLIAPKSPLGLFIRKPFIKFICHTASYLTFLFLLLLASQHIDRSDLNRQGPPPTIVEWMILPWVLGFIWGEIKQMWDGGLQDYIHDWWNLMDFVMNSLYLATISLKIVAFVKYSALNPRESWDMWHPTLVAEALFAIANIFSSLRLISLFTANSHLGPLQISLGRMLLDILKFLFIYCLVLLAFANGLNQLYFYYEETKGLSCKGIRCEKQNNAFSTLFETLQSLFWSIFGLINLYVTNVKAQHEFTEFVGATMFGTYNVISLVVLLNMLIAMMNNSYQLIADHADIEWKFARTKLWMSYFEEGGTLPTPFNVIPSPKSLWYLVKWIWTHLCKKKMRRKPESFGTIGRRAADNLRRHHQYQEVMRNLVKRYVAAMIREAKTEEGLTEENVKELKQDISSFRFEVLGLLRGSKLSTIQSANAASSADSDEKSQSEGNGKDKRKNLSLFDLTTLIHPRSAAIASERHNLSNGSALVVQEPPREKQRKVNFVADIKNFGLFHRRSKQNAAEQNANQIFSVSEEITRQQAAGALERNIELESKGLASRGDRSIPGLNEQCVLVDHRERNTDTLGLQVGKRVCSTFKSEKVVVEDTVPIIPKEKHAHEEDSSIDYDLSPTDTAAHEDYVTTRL

[2] = NIH-3T3 fibroblast cytotoxicity, dose response, cytotoxicity control, cell-based, fluorescence, Alamar Blue, secondary assay (AID 2327); assay type: functional;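 further: NIH-3T3 mouse fibroblasts cultured with fluconazole at 8 µg/mL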
[3] = fluconazole-exposed Candida albicans growth modulators – fluorescence, retest, confirmation (AID 2467); assay type: functional, cell-based
[4] = target: T2, E3 ubiquitin-protein ligase XIAP (Homo sapiens, UniProt P98170); assay: small molecules displacing peptide from XIAP – biochemical, IAP family, fluorescence polarization (AID 1018); assay type: functional
T2 sequence (P98170 whole entry): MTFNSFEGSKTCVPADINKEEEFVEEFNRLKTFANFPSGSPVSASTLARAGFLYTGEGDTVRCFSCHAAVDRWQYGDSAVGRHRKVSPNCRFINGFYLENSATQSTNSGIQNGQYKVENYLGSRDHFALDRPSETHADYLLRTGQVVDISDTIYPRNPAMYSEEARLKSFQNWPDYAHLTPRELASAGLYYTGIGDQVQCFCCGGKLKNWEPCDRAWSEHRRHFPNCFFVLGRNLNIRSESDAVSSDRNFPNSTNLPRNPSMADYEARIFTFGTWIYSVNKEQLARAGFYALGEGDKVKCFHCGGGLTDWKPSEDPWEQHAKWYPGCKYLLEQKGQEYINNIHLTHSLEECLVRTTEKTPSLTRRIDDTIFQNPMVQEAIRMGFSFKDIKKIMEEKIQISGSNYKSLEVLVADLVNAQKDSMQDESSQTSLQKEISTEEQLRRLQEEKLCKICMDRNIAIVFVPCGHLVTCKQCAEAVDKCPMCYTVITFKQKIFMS

[5] = target: T3, Calpain-2 catalytic subunit (Sus scrofa, UniProt P43367); assay: m-calpain protease blockers, concentration series – biochemical, fluorogenic peptide substrate, dose response (AID 1420); assay type: functional
T3 sequence (P43367 whole entry): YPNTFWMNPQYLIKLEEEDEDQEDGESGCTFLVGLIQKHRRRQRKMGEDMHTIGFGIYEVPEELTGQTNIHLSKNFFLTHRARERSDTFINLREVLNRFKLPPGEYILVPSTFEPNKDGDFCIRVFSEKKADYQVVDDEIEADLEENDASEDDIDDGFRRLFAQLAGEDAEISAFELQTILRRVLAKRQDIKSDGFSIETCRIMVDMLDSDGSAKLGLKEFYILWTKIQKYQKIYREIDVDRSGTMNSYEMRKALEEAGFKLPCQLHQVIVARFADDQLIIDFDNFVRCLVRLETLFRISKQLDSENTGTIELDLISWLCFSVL

[6] = target: T2, E3 ubiquitin-protein ligase XIAP; assay: Counter Screen using XIAP-Bir3 for Chemical Antagonists of Bir1/2 domains of IAP-family anti-apoptotic proteins. [Related pubchem assays (depositor defined):AID1018, AID1449, AID1514, AID1638, AID1749, AID1750, AID488957, AID488963]
[7] = target: T4, RNA-binding protein pos-1 (Caenorhabditis elegans, UniProt G5EF15); assay: disruptors of C. elegans POS-1 RNA interaction – biochemical, fluorescence polarization, dose response (AID 1964);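 further: purified POS-1 fused to maltose binding protein made in E. coli; potency of compounds blocking POS-1 binding to fluorescent RNA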
T4 sequence (G5EF15 whole entry): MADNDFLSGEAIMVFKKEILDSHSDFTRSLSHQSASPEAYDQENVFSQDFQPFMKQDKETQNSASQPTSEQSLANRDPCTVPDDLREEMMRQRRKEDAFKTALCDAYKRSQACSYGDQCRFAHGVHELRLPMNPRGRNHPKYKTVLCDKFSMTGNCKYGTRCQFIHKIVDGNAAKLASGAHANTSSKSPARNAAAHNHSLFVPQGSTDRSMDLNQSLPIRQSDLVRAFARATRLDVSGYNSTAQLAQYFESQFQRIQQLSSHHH

Mucolipin-3 = target: T5, Mucolipin-3 (Homo sapiens, UniProt Q8TDD5); assay: Fluorescence counterscreen assay for […] agonists: dose response cell-based high-throughput screening assay to identify agonists of the transient receptor potential channel ML3 (TRPML3). [Related pubchem assays: 1424, 1448 ]; assay type: functional
T5 sequence (Q8TDD5 whole entry): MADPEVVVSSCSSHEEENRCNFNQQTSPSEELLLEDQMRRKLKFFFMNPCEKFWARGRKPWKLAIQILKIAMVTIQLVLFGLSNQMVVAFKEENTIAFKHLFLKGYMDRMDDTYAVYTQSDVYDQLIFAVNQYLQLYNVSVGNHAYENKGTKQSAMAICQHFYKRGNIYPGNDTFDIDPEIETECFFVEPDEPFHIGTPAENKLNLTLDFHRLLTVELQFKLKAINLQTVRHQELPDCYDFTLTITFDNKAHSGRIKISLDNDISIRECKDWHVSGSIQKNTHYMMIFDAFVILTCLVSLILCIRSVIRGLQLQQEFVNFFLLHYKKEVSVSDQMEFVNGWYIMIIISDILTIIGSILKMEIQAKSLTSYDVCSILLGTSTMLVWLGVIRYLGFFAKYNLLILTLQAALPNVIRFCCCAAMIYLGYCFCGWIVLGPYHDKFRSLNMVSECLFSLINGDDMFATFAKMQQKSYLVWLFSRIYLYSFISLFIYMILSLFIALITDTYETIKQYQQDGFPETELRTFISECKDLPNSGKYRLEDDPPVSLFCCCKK

Ion channel NompC = Ion channel NompC (Danio rerio, UniProt Q7T1G6); assay: Dose response cell-based high-throughput screening assay for agonists of the transient receptor potential channel N1 (TRPN1). [Related pubchem assays (depositor defined):AID1424, AID1448]; assay type: functional
Ion channel NompC, sequence (Q7T1G6 whole entry): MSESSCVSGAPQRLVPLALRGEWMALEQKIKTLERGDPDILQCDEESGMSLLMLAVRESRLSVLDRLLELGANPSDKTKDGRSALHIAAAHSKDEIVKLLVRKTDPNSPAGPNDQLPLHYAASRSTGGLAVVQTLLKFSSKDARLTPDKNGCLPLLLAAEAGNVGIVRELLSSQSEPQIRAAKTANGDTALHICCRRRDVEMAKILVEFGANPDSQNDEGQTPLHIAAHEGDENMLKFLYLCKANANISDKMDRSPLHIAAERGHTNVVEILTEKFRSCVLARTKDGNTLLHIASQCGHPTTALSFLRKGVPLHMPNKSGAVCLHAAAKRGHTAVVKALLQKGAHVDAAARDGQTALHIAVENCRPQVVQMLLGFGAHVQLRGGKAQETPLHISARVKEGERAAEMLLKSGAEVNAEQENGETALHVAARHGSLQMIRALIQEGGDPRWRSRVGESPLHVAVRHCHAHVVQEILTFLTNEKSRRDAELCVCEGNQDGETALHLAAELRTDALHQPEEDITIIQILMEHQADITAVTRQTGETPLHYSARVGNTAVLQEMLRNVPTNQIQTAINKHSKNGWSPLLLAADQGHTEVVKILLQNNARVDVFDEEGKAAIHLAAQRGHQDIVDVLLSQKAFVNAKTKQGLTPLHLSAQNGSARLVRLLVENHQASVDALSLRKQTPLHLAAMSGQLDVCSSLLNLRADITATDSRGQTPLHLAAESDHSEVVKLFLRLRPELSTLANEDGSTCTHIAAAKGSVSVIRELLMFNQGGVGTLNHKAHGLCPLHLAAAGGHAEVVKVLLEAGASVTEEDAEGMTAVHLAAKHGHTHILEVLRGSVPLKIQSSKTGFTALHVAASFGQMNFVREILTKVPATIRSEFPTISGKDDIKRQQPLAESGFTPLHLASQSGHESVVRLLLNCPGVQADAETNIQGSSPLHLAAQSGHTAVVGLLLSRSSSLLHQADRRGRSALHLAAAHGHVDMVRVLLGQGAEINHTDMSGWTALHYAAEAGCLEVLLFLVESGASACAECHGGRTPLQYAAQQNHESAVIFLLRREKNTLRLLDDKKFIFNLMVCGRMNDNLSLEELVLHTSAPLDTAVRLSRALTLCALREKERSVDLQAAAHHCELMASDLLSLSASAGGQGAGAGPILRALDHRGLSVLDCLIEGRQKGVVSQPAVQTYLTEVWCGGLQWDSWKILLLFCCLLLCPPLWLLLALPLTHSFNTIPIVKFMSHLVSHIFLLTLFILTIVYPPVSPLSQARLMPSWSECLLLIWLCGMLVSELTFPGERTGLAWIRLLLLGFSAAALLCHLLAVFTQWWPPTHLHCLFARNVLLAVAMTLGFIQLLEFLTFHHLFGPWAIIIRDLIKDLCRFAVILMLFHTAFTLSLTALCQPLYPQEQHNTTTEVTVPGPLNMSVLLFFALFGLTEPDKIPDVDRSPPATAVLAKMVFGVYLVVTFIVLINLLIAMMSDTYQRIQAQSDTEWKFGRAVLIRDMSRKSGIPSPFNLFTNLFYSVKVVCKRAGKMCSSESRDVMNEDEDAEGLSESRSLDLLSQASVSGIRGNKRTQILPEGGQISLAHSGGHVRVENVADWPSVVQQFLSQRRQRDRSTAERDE

[8] = target: T6, Zinc finger protein mex-5 (Caenorhabditis elegans, UniProt Q9XUB2); assay: potency of MEX-5 RNA-binding blockers – biochemical, C. elegans, fluorescence polarization, dose response (AID 1960)
T6 sequence (Q9XUB2 whole entry): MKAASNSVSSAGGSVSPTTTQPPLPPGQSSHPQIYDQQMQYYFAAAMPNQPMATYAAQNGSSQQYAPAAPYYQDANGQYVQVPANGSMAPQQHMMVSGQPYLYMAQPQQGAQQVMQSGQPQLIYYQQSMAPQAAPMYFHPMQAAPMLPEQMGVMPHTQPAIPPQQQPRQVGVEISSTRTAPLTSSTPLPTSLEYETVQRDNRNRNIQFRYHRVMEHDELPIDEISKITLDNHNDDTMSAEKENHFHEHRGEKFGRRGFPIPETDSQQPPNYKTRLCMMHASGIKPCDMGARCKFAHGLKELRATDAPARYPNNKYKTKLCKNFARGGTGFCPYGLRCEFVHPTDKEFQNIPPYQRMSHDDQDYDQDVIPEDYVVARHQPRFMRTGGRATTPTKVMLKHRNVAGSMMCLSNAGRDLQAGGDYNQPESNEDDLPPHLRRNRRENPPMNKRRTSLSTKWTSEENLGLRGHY

[9] = target: T7, Heat shock factor protein 1 (Mus musculus, UniProt P38532); assay: decrease of HSF1-responsive luciferase luminescence – cell-based, NIH3T3, dose retest, confirmation (AID 2382); assay type: functional;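 further: NIH3T3 fibroblasts with HSF1-driven luciferase reporter stressed by proteasome inhibitor MG132; luminescence from HSF1-driven luciferase expression after 8 hours of MG132 stress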
T7 sequence (P38532 whole entry): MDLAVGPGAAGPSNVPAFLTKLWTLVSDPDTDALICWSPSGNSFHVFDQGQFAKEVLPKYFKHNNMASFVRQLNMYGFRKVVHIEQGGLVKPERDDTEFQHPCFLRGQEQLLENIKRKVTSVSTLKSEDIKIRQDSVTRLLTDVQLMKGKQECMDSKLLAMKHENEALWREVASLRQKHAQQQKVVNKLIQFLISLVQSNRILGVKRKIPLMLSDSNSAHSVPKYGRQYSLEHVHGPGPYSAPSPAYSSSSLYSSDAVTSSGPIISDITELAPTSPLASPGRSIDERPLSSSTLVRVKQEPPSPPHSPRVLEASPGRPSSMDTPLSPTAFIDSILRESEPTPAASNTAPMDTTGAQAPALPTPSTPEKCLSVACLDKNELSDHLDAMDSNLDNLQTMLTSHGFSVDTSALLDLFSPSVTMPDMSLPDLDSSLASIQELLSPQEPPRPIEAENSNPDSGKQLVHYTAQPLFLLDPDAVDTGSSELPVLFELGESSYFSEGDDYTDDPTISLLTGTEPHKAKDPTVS

[10] = target: Alkaline phosphatase, placental type (Homo sapiens, UniProt P05187); assay: human placental alkaline phosphatase inhibition – biochemical, luminescence, confirmation (AID 1512); assay type: functional
[11] = target: T8, Alkaline phosphatase, tissue-nonspecific isozyme (Homo sapiens, UniProt P05186); assay: potency against alkaline phosphatase TNAP – biochemical, luminescent, dose response, SAR follow-up (AID 1056)
T8 sequence (P05186 whole entry): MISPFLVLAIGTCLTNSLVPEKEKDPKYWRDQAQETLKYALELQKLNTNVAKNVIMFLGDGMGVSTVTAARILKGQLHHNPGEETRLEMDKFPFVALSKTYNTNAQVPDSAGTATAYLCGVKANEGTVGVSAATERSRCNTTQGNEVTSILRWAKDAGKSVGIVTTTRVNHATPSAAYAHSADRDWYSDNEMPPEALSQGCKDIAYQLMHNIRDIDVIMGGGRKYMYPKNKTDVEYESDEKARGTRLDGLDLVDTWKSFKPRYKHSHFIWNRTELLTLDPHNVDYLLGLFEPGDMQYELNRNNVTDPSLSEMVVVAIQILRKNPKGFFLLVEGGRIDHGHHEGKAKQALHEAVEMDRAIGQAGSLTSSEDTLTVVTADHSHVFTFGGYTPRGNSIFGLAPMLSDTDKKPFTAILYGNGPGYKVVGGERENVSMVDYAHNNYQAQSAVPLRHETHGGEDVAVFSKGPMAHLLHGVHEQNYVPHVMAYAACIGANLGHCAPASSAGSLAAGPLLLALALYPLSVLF

[12] = Luminescent dose response cell-based high throughput screening assay for inhibitors of the Janus kinase 2 mutant JAK2V617F. [Related pubchem assays: 1446 (Primary screen.), 1521 (Confirmation assay.), 1486 (Counter screen.)]; assay type: functional
[13] = target: T1, Short transient receptor potential channel 4; assay: block of DAMGO-driven TRPC4 calcium entry – cell-based, HEK293 TRPC4/mu-opioid, Fluo-4 calcium, dose response (AID 434942); assay type: functional;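 further: potency of inhibitors blocking the TRPC4 calcium response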
Mu-type opioid receptor = Mu-type opioid receptor (Homo sapiens, UniProt P35372); assay: HTS Image-Based Screen for Agonists of the MOR Receptor. [Related pubchem assays (depositor defined):AID1777, AID1785, AID1786, AID2133]; assay type: functional;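 further: imaging of beta-arrestin GFP recruitment into spots after receptor activation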
Mu-type opioid receptor, sequence (P35372 whole entry): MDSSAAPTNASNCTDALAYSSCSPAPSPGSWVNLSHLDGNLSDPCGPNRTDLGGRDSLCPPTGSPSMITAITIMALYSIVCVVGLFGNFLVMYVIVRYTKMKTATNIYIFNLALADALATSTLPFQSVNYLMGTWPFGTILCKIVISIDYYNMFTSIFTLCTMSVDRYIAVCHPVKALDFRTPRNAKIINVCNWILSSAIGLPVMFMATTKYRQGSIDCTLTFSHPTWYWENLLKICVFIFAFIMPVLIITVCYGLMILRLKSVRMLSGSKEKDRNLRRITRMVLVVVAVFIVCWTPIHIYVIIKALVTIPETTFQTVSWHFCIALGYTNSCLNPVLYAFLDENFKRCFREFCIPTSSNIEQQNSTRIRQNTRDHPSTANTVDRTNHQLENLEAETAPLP

[14] = target: T9, Delta-type opioid receptor (Homo sapiens, UniProt P41143); assay: HTS Image-Based Screen for Agonists of the DOR Receptor. [Related pubchem assays (depositor defined):AID1777, AID1786, AID2133]; assay type: functional
T9 sequence (P41143 whole entry): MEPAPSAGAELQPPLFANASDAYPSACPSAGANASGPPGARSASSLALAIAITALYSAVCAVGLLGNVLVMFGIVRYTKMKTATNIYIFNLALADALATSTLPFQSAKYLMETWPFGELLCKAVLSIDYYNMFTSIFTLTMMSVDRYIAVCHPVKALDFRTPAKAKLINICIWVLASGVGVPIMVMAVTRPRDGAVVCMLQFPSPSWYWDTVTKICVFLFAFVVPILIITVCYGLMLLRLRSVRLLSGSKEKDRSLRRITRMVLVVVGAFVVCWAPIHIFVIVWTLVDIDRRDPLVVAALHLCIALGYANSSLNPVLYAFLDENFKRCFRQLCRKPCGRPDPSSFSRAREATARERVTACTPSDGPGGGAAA

[15] = target: T10, Kappa-type opioid receptor (Homo sapiens, UniProt P41145); assay type: functional
T10 sequence (P41145 whole entry): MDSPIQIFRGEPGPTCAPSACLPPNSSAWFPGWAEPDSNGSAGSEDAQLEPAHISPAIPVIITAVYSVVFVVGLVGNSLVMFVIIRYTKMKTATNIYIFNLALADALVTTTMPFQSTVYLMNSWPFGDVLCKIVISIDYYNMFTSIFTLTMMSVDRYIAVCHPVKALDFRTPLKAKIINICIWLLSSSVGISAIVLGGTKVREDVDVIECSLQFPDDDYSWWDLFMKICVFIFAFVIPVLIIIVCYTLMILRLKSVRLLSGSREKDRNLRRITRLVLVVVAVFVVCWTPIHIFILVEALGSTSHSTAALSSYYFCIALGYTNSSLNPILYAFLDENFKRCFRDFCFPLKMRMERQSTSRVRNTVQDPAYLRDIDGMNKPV

Cytochrome P450 2D6 = Cytochrome P450 2D6 (Homo sapiens, UniProt P10635);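 further: CYP2D6 member of a cytochrome P450 panel assay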
Cytochrome P450 2D6, sequence (P10635 whole entry): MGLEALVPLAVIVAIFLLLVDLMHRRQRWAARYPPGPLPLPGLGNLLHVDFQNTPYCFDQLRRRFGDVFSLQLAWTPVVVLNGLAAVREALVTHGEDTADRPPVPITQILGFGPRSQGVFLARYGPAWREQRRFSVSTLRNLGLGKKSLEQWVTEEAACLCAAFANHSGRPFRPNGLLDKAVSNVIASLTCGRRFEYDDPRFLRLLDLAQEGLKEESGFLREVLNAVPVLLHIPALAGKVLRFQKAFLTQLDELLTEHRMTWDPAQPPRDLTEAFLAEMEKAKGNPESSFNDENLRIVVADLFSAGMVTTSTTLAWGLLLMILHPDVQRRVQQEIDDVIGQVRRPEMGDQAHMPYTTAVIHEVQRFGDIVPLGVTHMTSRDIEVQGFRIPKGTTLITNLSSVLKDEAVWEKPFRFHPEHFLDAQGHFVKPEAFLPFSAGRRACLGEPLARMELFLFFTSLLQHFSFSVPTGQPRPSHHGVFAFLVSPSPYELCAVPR

Beta-galactosidase = Beta-galactosidase (Escherichia coli, UniProt Q8VNN2); assay type: functional
Beta-galactosidase, sequence (Q8VNN2 whole entry): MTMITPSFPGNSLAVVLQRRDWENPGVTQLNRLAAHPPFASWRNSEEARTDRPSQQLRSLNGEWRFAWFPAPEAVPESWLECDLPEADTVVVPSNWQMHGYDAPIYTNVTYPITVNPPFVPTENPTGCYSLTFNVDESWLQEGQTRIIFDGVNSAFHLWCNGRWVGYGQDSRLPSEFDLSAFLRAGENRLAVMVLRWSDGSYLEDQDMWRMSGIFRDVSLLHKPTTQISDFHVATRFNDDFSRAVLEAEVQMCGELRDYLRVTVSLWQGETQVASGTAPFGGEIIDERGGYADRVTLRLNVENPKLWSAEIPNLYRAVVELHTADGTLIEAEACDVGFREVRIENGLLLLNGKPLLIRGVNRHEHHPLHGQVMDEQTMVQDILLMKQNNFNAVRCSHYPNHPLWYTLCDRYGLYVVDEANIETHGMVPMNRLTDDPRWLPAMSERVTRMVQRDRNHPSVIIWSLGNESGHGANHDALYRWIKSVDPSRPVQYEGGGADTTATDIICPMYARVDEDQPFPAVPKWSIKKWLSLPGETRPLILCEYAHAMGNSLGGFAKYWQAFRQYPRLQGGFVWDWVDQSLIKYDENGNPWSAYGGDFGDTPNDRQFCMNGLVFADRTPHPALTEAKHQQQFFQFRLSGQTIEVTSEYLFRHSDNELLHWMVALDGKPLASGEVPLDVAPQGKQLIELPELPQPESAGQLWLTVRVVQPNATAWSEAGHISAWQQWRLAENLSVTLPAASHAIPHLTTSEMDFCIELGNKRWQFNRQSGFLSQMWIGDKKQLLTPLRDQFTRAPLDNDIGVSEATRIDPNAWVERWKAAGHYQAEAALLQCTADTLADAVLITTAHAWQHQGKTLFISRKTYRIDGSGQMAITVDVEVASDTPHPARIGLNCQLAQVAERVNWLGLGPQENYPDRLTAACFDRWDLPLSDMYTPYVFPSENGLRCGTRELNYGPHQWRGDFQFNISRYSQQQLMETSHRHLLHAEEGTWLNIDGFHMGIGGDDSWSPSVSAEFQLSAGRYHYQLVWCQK

[16] = target: T9, Delta-type opioid receptor; assay: HTS Image-Based Screen for Antagonists of the DOR Receptor. [Related pubchem assays (depositor defined):AID1777, AID1785, AID1786, AID2133]; assay type: functional
[17] = target: T10, Kappa-type opioid receptor; assay type: functional; remark: listed apart in the source
cells = assay type: functional
[18] = Vero E6 cell cytotoxicity, dose response, cytotoxicity control for non-replicating M. tuberculosis project, secondary assay (AID 492998); assay type: functional, VeroE6; settings: Vero C1008
[19] = THP-1 cell cytotoxicity, dose response, cytotoxicity control for non-replicating M. tuberculosis project (AID 489025); assay type: functional

Cc1ccccc1C(=O)NNC(=S)NC(=O)c1ccc(Cl)cc1Cl
EC50 [1]: 1.33 µM (active)
EC50 [2]: > 160 µM (inactive)
EC50 [3]: 1.75 µM (active)

COc1ccc(/C=C(\NC(=O)c2ccccc2Cl)C(=O)NCCCC(=O)O)cc1
IC50 [4]: > 100 µM (not active)
IC50 [5]: > 50 µM (not active)
IC50 [6]: > 100 µM (inactive)

CC(C)/C=C1\CC/C(=C\c2ccc(N(C)C)cc2)C1=O
EC50 [7]: > 300 µM (not active)
EC50 (Mucolipin-3): 1.9 µM (active)
EC50 (Ion channel NompC): 0.507 µM (active)
EC50 [8]: > 300 µM (inconclusive)

O=C(c1ccc(O)cc1)c1ccc(C(=O)O)c(C(=O)O)c1
EC50 [9]: > 195 µM (not active)
IC50 [4]: > 100 µM (not active)
IC50 [6]: > 100 µM (inactive)

COc1ccc(-n2nnnc2SCC(=O)c2ccc(O)c(O)c2)cc1
IC50 [10]: 1.42 µM (active)
IC50 [11]: 5.93 µM (active)
IC50 [12]: 1.46 µM (active)

CCn1c(SCC(=O)c2cc(C)n(CC3CCCO3)c2C)nc2ccccc21 (stereo not drawn)
EC50 [13]: 5.31 µM (active)
EC50 [1]: 9.44 µM (active)

COc1ccc(-c2csc(N3C(=N)SCC3=O)n2)cc1
EC50 (Mu-type opioid receptor): > 32 µM (inactive)
EC50 [14]: > 32 µM (inactive)
IC50 [15]: > 32 µM
AC50 (Cytochrome P450 2D6): 11.2 µM (inconclusive)
EC50 (Beta-galactosidase): > 31.5 µM (inactive)
IC50 [16]: > 32 µM (inactive)
IC50 [17]: 12.8 µM (active)

COc1cccc(/C=C2\SC(=S)N(CCC(=O)N3CCCCC3)C2=O)c1
IC50 (cells): 17.2 µM (active)
CC50 [18]: 8.75 µM (active)
CC50 [19]: 18.6 µM (active)
